Where two headings read alike, the source gives them in different places.
Legend:
5-HT M-receptor [1] = target: T1, 5-HT M-receptor (Oryctolagus cuniculus, UniProt A0A5F9C9J3); assay: pA2 against 5-HT in isolated rabbit heart; format: cell-based
T1 construct: determining their pA2 values in the isolated rabbit heart; from tissue; host or cells: isolated rabbit heart (receptor on the cardiac neurones)
T1 sequence (A0A5F9C9J3 1-494): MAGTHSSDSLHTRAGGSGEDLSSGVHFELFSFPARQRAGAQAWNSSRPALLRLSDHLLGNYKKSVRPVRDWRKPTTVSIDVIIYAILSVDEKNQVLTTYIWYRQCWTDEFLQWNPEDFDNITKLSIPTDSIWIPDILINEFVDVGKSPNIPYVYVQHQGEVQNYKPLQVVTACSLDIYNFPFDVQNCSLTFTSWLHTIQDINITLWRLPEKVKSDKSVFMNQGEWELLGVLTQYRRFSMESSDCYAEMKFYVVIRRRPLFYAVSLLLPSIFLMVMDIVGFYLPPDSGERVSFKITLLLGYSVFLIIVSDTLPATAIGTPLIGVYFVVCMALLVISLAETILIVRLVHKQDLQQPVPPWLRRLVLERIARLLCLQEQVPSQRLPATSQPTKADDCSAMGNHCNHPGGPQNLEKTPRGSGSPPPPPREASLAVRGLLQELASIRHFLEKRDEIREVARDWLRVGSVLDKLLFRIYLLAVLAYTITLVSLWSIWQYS
Description: (§1) The activity of the compounds against 5-HT can be assessed by determining their pA2 values in the isolated rabbit heart as described by J. R. Fozard et al, Eur. J. Pharmacol., 59, 195-210 (1979). In the method described, the molar concentration of antagonist which reduces the effects of twice the ED50 of 5-HT to that of the ED50 in the absence of antagonist is determined. The pA2 value is the negative logarithm of said molar concentrations.

5-HT M-receptor [2] = target: T1, 5-HT M-receptor; settings: reported by J. R. Fozard et al, Eur. J. Pharmacol. 1979 / 1978; cited from earlier work
[3] = tested on: Von Bezold-Jarisch Reflex (5-HT M-receptor); assay: Antagonism of the Von Bezold-Jarisch reflex evoked by 5-HT in the anaesthetized rat; format: in vivo, rat (male Sprague-Dawley); settings: comparison in words, i.v.
Description: The activity of these compounds against 5-HT can be assessed in vivo by measurement of the effect of the compound on the Von Bezold-Jarisch Reflex induced by 5-HT injected intravenously into the rat (A. S. Paintal, Physiol. Rev. 53, 159-227, 1973). The transient caridac slowing arises from an increased afferent vagus activity arising from stimulation by 5-HT of sensory afferent fibres in and around the heart (see Example 3).
Antagonism of the Von Bezold-Jarisch reflex evoked by 5-HT in the anaesthetized rat was measured for tropyl 3,5-dimethoxybenzoate (A), tropyl 3,5-dimethylbenzoate (B) and tropyl 3,5-dichlorobenzoate (C) using the following method.
Male Sprague-Dawley rats weighing 250-300 g are anaesthetized with urethane, 1.25 g/kg injected intraperitoneally and set up for recording blood pressure and heart rate as described in J. R. Fozard et al, J. Cardiovas. Pharmacol. 2, 229-245 (1980). A submaximal dose of 5-HT ([…]) is given repeatedly into the cannulated jugular vein and changes in heart rate are quantified. Antagonists are given intravenously and the doses required to just inhibit the response to 5-HT (threshold dose) or to inhibit the response to 5-HT by 50% (ED50) are determined.

LD50 in the mouse = format: in vivo; settings: in vivo, mouse
mouse = assay: LD50 in the mouse; format: in vivo; settings: as shown by LD50 values in the mouse and rat
LD50 in the rat = settings: in vivo, iv
[4] = target: T2, rabbit heart (5-HT M receptor) (Oryctolagus cuniculus, UniProt A0A5F9C9J3); assay: Inhibition of standard response to 5-HT, rabbit heart; format: cell-based
T2 construct: RABBIT HEART; from tissue; host or cells: rabbit heart
T2 sequence (A0A5F9C9J3 1-494): T1 sequence (A0A5F9C9J3 1-494)
Description: as §1
(§2) A selection of classical in vitro pharmacological test preparations (rat uterus, rat fundus, guinea-pig ileum, guinea-pig taenia caeci) were set up according to well-established procedures (see "Pharmacological Experiments on Isolated Preparations" Staff of the Department of Pharmacology, University of Edinburgh, Livingstone, Edinburgh 1970). Various spasmogens were used to elicit contraction of these tissues though mechanisms other than the 5-HT "M" receptor. The concentrations of tropyl 3,5-dimethoxybenzoate (A), tropyl 3,5-dimethylbenzoate (B) and tropyl 3,5-dichlorobenzoate (C) which reduced the effects of a submaximal dose of agonist by 50% were determined (IC50). The results are set forth in Table VI below in which the compounds are identified by the reference letters used above.

rat uterus [5] = assay: Inhibition of standard response to 5-HT, rat uterus; format: cell-based; settings: agonist 5-HT, read-out: Concentration to inhibit standard response to stimulants by 50% (IC50)
Description: as §2

rat uterus [6] = assay: Inhibition of standard response to oxytocin, rat uterus; format: cell-based; settings: agonist oxytocin, read-out: Concentration to inhibit standard response to stimulants by 50% (IC50)
Description: as §2

rat fundus [7] = assay: Inhibition of standard response to 5-HT, rat fundus; format: cell-based; settings: agonist 5-HT, read-out: Concentration to inhibit standard response to stimulants by 50% (IC50)
Description: as §2

rat fundus [8] = assay: Inhibition of standard response to acetylcholine, rat fundus; format: cell-based; settings: agonist acetylcholine, read-out: Concentration to inhibit standard response to stimulants by 50% (IC50)
Description: as §2

guinea-pig ileum [9] = assay: Inhibition of standard response to acetylcholine, guinea-pig ileum; format: cell-based; settings: Cavia porcellus, agonist acetylcholine, read-out: Concentration to inhibit standard response to stimulants by 50% (IC50)
Description: as §2

guinea-pig ileum [10] = assay: Inhibition of standard response to histamine, guinea-pig ileum; format: cell-based; settings: Cavia porcellus, agonist histamine, read-out: Concentration to inhibit standard response to stimulants by 50% (IC50)
Description: as §2

guinea-pig taenia caeci = assay: Inhibition of standard response to calcium, guinea-pig taenia caeci; format: cell-based; settings: Cavia porcellus; guinea-pig taenia caeci in potassium-depolarized Tyrode solution, agonist calcium; read-out: Concentration to inhibit standard response to stimulants by 50% (IC50)
Description: as §2
*In potassiumdepolarized Tyrode solution

[11] = tested on: migraine or cluster headaches; assay: Pilot study of intravenous tropyl 3,5-dichlorobenzoate in patients with migraine or cluster headaches; format: in vivo
Description: Pilot Study of Tolerance To Intravenous Tropyl 3,5-Dichlorobenzoate in Patients With Migraine or Cluster Headaches
This study was designed to evaluate tolerance and, if possible, efficacy of intravenous tropyl 3,5-dichlorobenzoate in patients with migraine or cluster headaches.
Eight patients (4 males), aged 27-47 with known headache disorders of 5-27 years duration (see Table VII) took part in the study but Patients Nos. 2 and 4 had cluster not migraine headaches and the cause of headaches in Patient No. 6 was unknown.
Tropyl 3,5-dichlorobenzoate was provided as a sterile solution, 1 mg/ml; the desired dose to be diluted in 10 ml normal saline for intravenous infusion over a 2 minute period. No other therapy was taken for at least 24 hours before treatment or during the course of therapy.

5-HT D-receptor = settings: at the doses used clinically for the treatment of migraine; cited from earlier work
[12] = isolated rabbit heart, negative log of molar concentration of antagonist reducing effect of twice the ED50 of 5-HT to that of the ED50, read-out: pA2 5-HT (converted)
[13] = Patient 6, i.v., after 4 mg dose
[14] = Patient 8, i.v., first day of 9 mg

SMILES: COc1ccc(C(=O)O[C@H]2C[C@H]3CC[C@@H](C2)N3C)cc1OC [tropyl 3,4-dimethoxybenzoate, reference compound]
- Kb (5-HT M-receptor [1]; [12]): 63.1 nM

SMILES: CN1[C@@H]2CC[C@H]1C[C@@H](OC(=O)c1ccc(Cl)cc1)C2 [tropyl 4-chlorobenzoate, reference compound]
- Kb (5-HT M-receptor [1]; [12]): 100 nM

SMILES: CN1[C@@H]2CC[C@H]1C[C@@H](OC(=O)c1ccccc1)C2 [tropylbenzoate, reference compound]
- Kb (5-HT M-receptor [1]; [12]): 63.1 nM
- pA2 value (5-HT) (5-HT M-receptor [2]): 7.12

SMILES: CN1[C@@H]2CC[C@H]1C[C@@H](OC(=O)c1cc(Cl)cc(Cl)c1)C2 [tropyl 3,5-dichlorobenzoate]
- Kb (5-HT M-receptor [1]): 0.501 nM
- potency relative to metoclopramide [3]: many times more potent than metoclopramide
- LD50 (LD50 in the mouse; ip): 32 mg/kg
- LD50 (LD50 in the mouse; iv): 24 mg/kg
- LD50 (LD50 in the mouse; oral): 90 mg/kg
- toxicity in words (mouse): relatively non-toxic
- LD50 (LD50 in the rat): 14 mg/kg
- IC50 [4]: 0.82 nM
- IC50 (rat uterus [5]): 25.4 µM
- IC50 (rat uterus [6]): > 50.9 µM
- IC50 (rat fundus [7]): > 50.9 µM
- IC50 (rat fundus [8]): 12.4 µM
- IC50 (guinea-pig ileum [9]): 8.05 µM
- IC50 (guinea-pig ileum [10]): 3.68 µM
- IC50 (guinea-pig taenia caeci): 28.6 µM
- response ([11]; Patient 1, i.v. 1 mg, then 1 hour later, 2 mg): no effect on headache or nausea
- response ([11]; Patient 2 (cluster headache), i.v. 1 mg): no effect
- response ([11]; Patient 3, i.v. 3 mg): no effect
- response ([11]; Patient 4 (cluster headache), i.v. 3 mg): no effect
- response ([11]; Patient 5, i.v. 5 mg): no effect
- period over which reduction in headache intensity lasted ([11]; Patient 6, i.v.): 21/2
- headache reduction ([11]; Patient 6, i.v. 3 mg single doses): slight reduction in their bilateral headache
- headache reduction ([11]; Patient 6, i.v. 4 mg bid): further amelioration
- response with increased doses ([11]; Patient 6, i.v. 5 mg bid × 2 days, then 6 mg bid × 11 days): no greater effect
- duration of reduction of pain intensity [11, 13]: 4 to 8 h
- onset of reduction of pain intensity [11, 13]: ≤ 30 min
- reduction of pain intensity ([11]; Patient 6, i.v., within 30 minutes after 4 mg dose): 70-80%
- response ([11]; Patient 7, i.v. 3 mg × 1 day, 5 mg × 2 days, 7 mg × 1 day): no effect
- return of headache to pretreatment intensity after stopping therapy ([11]; Patient 8, after stopping i.v. therapy): 6 to 7 days
- reduction of pain ([11]; Patient 8, i.v. 3 mg): about 30%
- response during increasing doses ([11]; Patient 8, i.v. 6 mg × 1 day, 7 mg × 2 days, 9 mg × 1 day): maintained during increasing doses
- episode of pain, nausea, vomiting and photophobia [11, 14]: single episode of pain
- symptom return during treatment [11, 14]: single episode of symptom return
- symptoms (headache, nausea, vomiting, vertigo, photophobia) ([11]; Patient 8, i.v., first dose of 3 mg): decrease in all symptoms
- tolerance of initial dose ([11]; i.v., initial dose 1 mg): well tolerated
- cumulative dose well tolerated ([11]; i.v., over 18 days): ≤ 177 mg
- dose administered without any signs of intolerance, daily ([11]; i.v., patients): ≤ 14 mg/day
- dose well tolerated, repeated doses ([11]; i.v., repeated doses, patients with headaches): up to 7 mg b.i.d.
- number of patients responding to repeated doses ([11]; repeated i.v. doses, marked diminution of headache and associated symptoms, of three patients): two of the three patients
- headache and associated symptoms ([11]; repeated i.v. doses, two of the three patients (Patients Nos. 6 and 8)): marked diminution of headache and associated symptoms
- pain intensity and associated symptoms ([11]; some patients, i.v. doses of 3 mg or greater): pain intensity and associated symptoms were ameliorated

SMILES: COc1cc(OC)cc(C(=O)O[C@H]2C[C@H]3CC[C@@H](C2)N3C)c1 [tropyl 3,5-dimethoxybenzoate]
- Kb (5-HT M-receptor [1]; [12]): 3.98 nM
- potency relative to metoclopramide [3]: many times more potent than metoclopramide
- LD50 (LD50 in the mouse; ip): 28 mg/kg
- LD50 (LD50 in the mouse; iv): 29 mg/kg
- LD50 (LD50 in the mouse; sc): 17 mg/kg
- LD50 (LD50 in the mouse; oral): 160 mg/kg
- toxicity in words (mouse): relatively non-toxic
- LD50 (LD50 in the rat): 13 mg/kg
- IC50 ([4]; rabbit heart, agonist 5-HT, read-out: Concentration to inhibit standard response to stimulants by 50% (IC50)): 9.4 nM
- IC50 (rat uterus [5]): > 52.5 µM
- IC50 (rat uterus [6]): > 52.5 µM
- IC50 (rat fundus [7]): 40 µM
- IC50 (rat fundus [8]): 13.1 µM
- IC50 (guinea-pig ileum [9]): 9.56 µM
- IC50 (guinea-pig ileum [10]): 6.61 µM
- IC50 (guinea-pig taenia caeci): 36.1 µM

SMILES: CC[C@@H](CO)NC(=O)[C@@H]1C=C2c3cccc4c3c(cn4C)C[C@H]2N(C)C1 [methysergide]
- 5-HT D-receptor antagonism (5-HT D-receptor): 5-HT D-receptor antagonists

SMILES: CN(C)CCCN1c2ccccc2Sc2ccc(Cl)cc21 [chlorpromazine]
- 5-HT D-receptor antagonism (5-HT D-receptor): 5-HT D-receptor antagonists

SMILES: CC(C)NC[C@H](O)COc1cccc2ccccc12 (racemic) [propanolol]
- 5-HT D-receptor antagonism (5-HT D-receptor): 5-HT D-receptor antagonists

Reference: patent US4585866A, “Treatment of migraine with substituted tropyl benzoate derivatives” (Merrell Dow Pharmaceuticals Inc., priority 1984, dated 1986)
